Key:
[1] = test system: Mycobacterium tuberculosis Erdman strain (Mtb ATCC 35801); assay: Susceptibility testing (broth microdilution MIC) with or without TIM; assay type: cell-based; settings: TIM 10 μg/ml
Mtb Erdman = assay: Mouse infection model (lung CFU); assay type: in vivo, C57BL/6 mice; settings: mice, lungs; TIM 200, INH 25 mg/kg; 4 weeks; FIG. 4B; not to the same extent as RIF, statistically significant
in vivo = settings: C57BL/6, mouse, po, 10 mg/kg; for AUC(0-inf): RIF AUCinf Plasma; for Cmax: RIF Cmax Plasma
[2] = test system: Mycobacterium tuberculosis Erdman strain in macrophages; assay: Mtb-THP-1 macrophage infection screening assay; assay type: cell-based
[3] = RIF 10 mg/kg + TIM 200 mg/kg dosed 6 hours prior to RIF

COc1nc2ccc(Br)cc2cc1[C@@H](c1ccccc1)[C@@](O)(CCN(C)C)c1cccc2ccccc12 [TMC-207]
potentiating effect of TIM on the activity against Mtb ([1]; MIC without vs with TIM): 15 fold

CCc1cc(C(N)=S)ccn1 [ethionamide]
in vitro effect of TIM on the activity of the drug against Mtb [1]: no in vitro effect

NNC(=O)c1ccncc1 [Isoniazid, isoniazid]
in vitro effect of TIM on the activity of the drug against Mtb [1]: no in vitro effect | effect of TIM on activity in vivo (Mtb Erdman): does enhance INH activity in vivo

acriflavin
in vitro effect of TIM on the activity of the drug against Mtb [1]: no in vitro effect

CO[C@H]1/C=C/O[C@@]2(C)Oc3c(C)c(O)c4c(O)c(c(/C=N/N5CCN(C6CCCC6)CC5)c(O)c4c3C2=O)NC(=O)/C(C)=C\C=C\[C@H](C)[C@H](O)[C@@H](C)[C@@H](O)[C@@H](C)[C@H](OC(C)=O)[C@@H]1C [Rifapentine, rifapentine]
in vitro effect of TIM on the activity of the drug against Mtb [1]: no in vitro effect

COc1c(N2CCNC(C)C2)c(F)cc2c(=O)c(C(=O)O)cn(C3CC3)c12 (centres unmarked) [gatifloxacin]
in vitro effect of TIM on the activity of the drug against Mtb [1]: no in vitro effect

CC(=O)NC[C@H]1CN(c2ccc(N3CCOCC3)c(F)c2)C(=O)O1 [Linezolid]
in vitro effect of TIM on the activity of the drug against Mtb [1]: no in vitro effect

CO[C@H]1/C=C/O[C@@]2(C)Oc3c(C)c(O)c4c(O)c(c(/C=N/N5CCN(C)CC5)c(O)c4c3C2=O)NC(=O)/C(C)=C\C=C\[C@H](C)[C@H](O)[C@@H](C)[C@@H](O)[C@@H](C)[C@H](OC(C)=O)[C@@H]1C [RIF, rifampicin]
AUC(0-inf) (in vivo; [3]): 153 µg·h/mL | AUC(0-inf) (in vivo; RIF 10 mg/kg alone): 152 µg·h/mL | Cmax (in vivo; [3]): 14900 ng/mL | Cmax (in vivo; RIF 10 mg/kg alone): 19800 ng/mL | Log10 CFU ([2]; Drug conc. 0.04 ug/mL): 4.71 Log10 CFU | Log10 CFU ([2]; Drug conc. 0.1 ug/mL): 4.47 Log10 CFU | Log10 CFU ([2]; Drug conc. 0.4 ug/mL): 4.58 Log10 CFU | Log10 CFU ([2]; Drug conc. 1.1 ug/mL): 3.98 Log10 CFU | Log10 CFU ([2]; Drug conc. 3.3 ug/mL): 1.94 Log10 CFU | Log10 CFU ([2]; Drug conc. 10 ug/mL): 2.12 Log10 CFU | Log10 CFU ([2]; Drug conc. 30 ug/mL): 1.10 Log10 CFU

CC(=O)NC[C@H]1CN(c2ccc(N3CCSCC3)c(F)c2)C(=O)O1 [U-100480]
in vitro effect of TIM on the activity of the drug against Mtb [1]: no in vitro effect
